Test results: the supplement of paper PMC13207355

Key:
Conditions in all cases: exposure time: 72 h
[1] = system: E31 (patient-derived glioblastoma stem cells of proneural subtype); assay: phenotypic distance (Euclidean, principal components) from DMSO controls (arbitrary units); higher = stronger morphological change
[2] = system: E28 (patient-derived glioblastoma stem cells of classical subtype); assay: as above
[3] = system: E57 (patient-derived glioblastoma stem cells of mesenchymal subtype); assay: as above
[4] = system: FT3469 (normal neural stem cell line); assay: as above
[5] = system: E21 (patient-derived glioblastoma stem cells of mesenchymal subtype); assay: as above
[6] = system: E13 (patient-derived glioblastoma stem cells of classical subtype); assay: as above
[7] = system: E34 (patient-derived glioblastoma stem cells of proneural subtype); assay: as above
[8] = system: E31; assay: surviving fraction (nuclei count normalised to DMSO); higher = more cells surviving (less toxic)
[9] = system: E28; assay: as above
[10] = system: E57; assay: as above
[11] = system: FT3469; assay: as above
[12] = system: E21; assay: as above
[13] = system: E13; assay: as above
[14] = system: E34; assay: as above
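Wherever phenotypic distance (Euclidean, principal components) from DMSO controls is given: cell Painting imaging in 384-well plates, CellProfiler features reduced to at least 20 principal components, Euclidean distance versus same-plate DMSO vehicle wells (0.1% v/v), median over six images per well.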
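Wherever surviving fraction (nuclei count normalised to DMSO) is given: nuclei counted by high-content imaging of Hoechst-stained cells in laminin-coated 384-well plates, relative to 0.1% DMSO vehicle wells, with staurosporine as cell-death control.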

Cc1[nH]nc(C(F)(F)F)c1Cc1sc2c(c1C(=O)N1C[C@](C)(O)CO1)c(=O)n(C)c(=O)n2C(C)C [AZD3965]
Conditions | phenotypic distance | surviving fraction
[1], 4.1 nM | 1.24 | –
[1], 4.11523 nM | 1.57 | –
[1], 12.3 nM | 1.17 | –
[1], 12.34567901 nM | 1.51 | –
[1], 37 nM | 1.23 | –
[1], 37.037 nM | 1.3 | –
[1], 111.1 nM | 1.12 | –
[1], 111.1111111 nM | 1.4 | –
[1], 333.3 nM | 1.58 | –
[1], 333.333 nM | 1.36 | –
[1], 1000 nM | 1.41 | –
[1], 3000 nM | 1.36 | –
[2], 4.1 nM | 1.93 | –
[2], 4.11523 nM | 2.44 | –
[2], 12.3 nM | 2.03 | –
[2], 12.34567901 nM | 2.3 | –
[2], 37 nM | 2.12 | –
[2], 37.037 nM | 2.05 | –
[2], 111.1 nM | 2.52 | –
[2], 111.1111111 nM | 2.75 | –
[2], 333.3 nM | 2.16 | –
[2], 333.333 nM | 1.86 | –
[2], 1000 nM | 3.17 | –
[2], 3000 nM | 2.52 | –
[3], 4.1 nM | 1.39 | –
[3], 4.11523 nM | 1.81 | –
[3], 12.3 nM | 1.46 | –
[3], 12.34567901 nM | 1.78 | –
[3], 37 nM | 1.94 | –
[3], 37.037 nM | 2.19 | –
[3], 111.1 nM | 1.74 | –
[3], 111.1111111 nM | 1.87 | –
[3], 333.3 nM | 1.65 | –
[3], 333.333 nM | 1.79 | –
[3], 1000 nM | 1.74 | –
[3], 3000 nM | 1.93 | –
[4], 4.1 nM | 2.64 | –
[4], 4.11523 nM | 1.35 | –
[4], 12.3 nM | 0.859 | –
[4], 12.34567901 nM | 1.19 | –
[4], 37 nM | 0.806 | –
[4], 37.037 nM | 1.13 | –
[4], 111.1 nM | 0.75 | –
[4], 111.1111111 nM | 1.11 | –
[4], 333.3 nM | 1.33 | –
[4], 333.333 nM | 1.16 | –
[4], 1000 nM | 0.712 | –
[4], 3000 nM | 0.976 | –
[5], 4.1 nM | 0.524 | –
[5], 4.11523 nM | 0.56 | –
[5], 12.3 nM | 0.38 | –
[5], 12.34567901 nM | 0.473 | –
[5], 37 nM | 0.579 | –
[5], 37.037 nM | 0.608 | –
[5], 111.1 nM | 3 | –
[5], 111.1111111 nM | 0.601 | –
[5], 333.3 nM | 0.814 | –
[5], 333.333 nM | 0.596 | –
[5], 1000 nM | 0.438 | –
[5], 3000 nM | 0.509 | –
[6], 4.1 nM | 2.38 | –
[6], 4.11523 nM | 3.36 | –
[6], 12.3 nM | 1.38 | –
[6], 12.34567901 nM | 1.25 | –
[6], 37 nM | 1.12 | –
[6], 37.037 nM | 1.28 | –
[6], 111.1 nM | 1.14 | –
[6], 111.1111111 nM | 1.42 | –
[6], 333.3 nM | 1.61 | –
[6], 333.333 nM | 1.44 | –
[6], 1000 nM | 1.42 | –
[6], 3000 nM | 1.49 | –
[7], 4.1 nM | 1.15 | –
[7], 4.11523 nM | 1.69 | –
[7], 12.3 nM | 1.33 | –
[7], 12.34567901 nM | 1.5 | –
[7], 37 nM | 1.42 | –
[7], 37.037 nM | 1.59 | –
[7], 111.1 nM | 1.57 | –
[7], 111.1111111 nM | 1.79 | –
[7], 333.3 nM | 1.47 | –
[7], 333.333 nM | 1.47 | –
[7], 1000 nM | 1.21 | –
[7], 3000 nM | 1.35 | –
[8], 4.1 nM | – | 1.02
[8], 4.11523 nM | – | 0.885
[8], 12.3 nM | – | 1.01
[8], 12.34567901 nM | – | 1.03
[8], 37 nM | – | 1.11
[8], 37.037 nM | – | 0.935
[8], 111.1 nM | – | 1.02
[8], 111.1111111 nM | – | 1.26
[8], 333.3 nM | – | 1.08
[8], 333.333 nM | – | 0.948
[8], 1000 nM | – | 1.06
[8], 3000 nM | – | 0.9527
[9], 4.1 nM | – | 0.719
[9], 4.11523 nM | – | 0.606
[9], 12.3 nM | – | 0.623
[9], 12.34567901 nM | – | 0.725
[9], 37 nM | – | 0.66
[9], 37.037 nM | – | 0.664
[9], 111.1 nM | – | 0.585
[9], 111.1111111 nM | – | 0.599
[9], 333.3 nM | – | 0.695
[9], 333.333 nM | – | 0.602
[9], 1000 nM | – | 0.645
[9], 3000 nM | – | 0.609
[10], 4.1 nM | – | 0.905
[10], 4.11523 nM | – | 0.97
[10], 12.3 nM | – | 0.959
[10], 12.34567901 nM | – | 0.899
[10], 37 nM | – | 0.94
[10], 37.037 nM | – | 0.871
[10], 111.1 nM | – | 0.932
[10], 111.1111111 nM | – | 0.96
[10], 333.3 nM | – | 0.917
[10], 333.333 nM | – | 0.898
[10], 1000 nM | – | 0.922
[10], 3000 nM | – | 0.917
[11], 4.1 nM | – | 0.911
[11], 4.11523 nM | – | 0.788
[11], 12.3 nM | – | 0.929
[11], 12.34567901 nM | – | 0.932
[11], 37 nM | – | 0.838
[11], 37.037 nM | – | 0.903
[11], 111.1 nM | – | 0.873
[11], 111.1111111 nM | – | 1.07
[11], 333.3 nM | – | 1.05
[11], 333.333 nM | – | 0.841
[11], 1000 nM | – | 0.948
[11], 3000 nM | – | 0.899
[12], 4.1 nM | – | 0.918
[12], 4.11523 nM | – | 0.909
[12], 12.3 nM | – | 0.974
[12], 12.34567901 nM | – | 0.942
[12], 37 nM | – | 1.01
[12], 37.037 nM | – | 0.985
[12], 111.1 nM | – | 0.876
[12], 111.1111111 nM | – | 0.994
[12], 333.3 nM | – | 0.97
[12], 333.333 nM | – | 0.874
[12], 1000 nM | – | 0.975
[12], 3000 nM | – | 1.03
[13], 4.1 nM | – | 0.892
[13], 4.11523 nM | – | 0.874
[13], 12.3 nM | – | 0.878
[13], 12.34567901 nM | – | 0.853
[13], 37 nM | – | 0.902
[13], 37.037 nM | – | 0.888
[13], 111.1 nM | – | 0.875
[13], 111.1111111 nM | – | 0.852
[13], 333.3 nM | – | 0.798
[13], 333.333 nM | – | 0.795
[13], 1000 nM | – | 0.8872
[13], 3000 nM | – | 0.893
[14], 4.1 nM | – | 0.782
[14], 4.11523 nM | – | 0.704
[14], 12.3 nM | – | 0.677
[14], 12.34567901 nM | – | 0.748
[14], 37 nM | – | 0.775
[14], 37.037 nM | – | 0.724
[14], 111.1 nM | – | 0.71
[14], 111.1111111 nM | – | 0.849
[14], 333.3 nM | – | 0.713
[14], 333.333 nM | – | 0.686
[14], 1000 nM | – | 0.7
[14], 3000 nM | – | 0.718
